The text below walks through data of patent US10285989B2, “Pyrimidinone amide compounds as PDE2 inhibitors” (Merck Sharp & Dohme Corp., priority 2015, dated 2019).

SMILES strings stand for the structures.

Sequence of Rhesus PDE2A3 (B3VTJ2 1-941): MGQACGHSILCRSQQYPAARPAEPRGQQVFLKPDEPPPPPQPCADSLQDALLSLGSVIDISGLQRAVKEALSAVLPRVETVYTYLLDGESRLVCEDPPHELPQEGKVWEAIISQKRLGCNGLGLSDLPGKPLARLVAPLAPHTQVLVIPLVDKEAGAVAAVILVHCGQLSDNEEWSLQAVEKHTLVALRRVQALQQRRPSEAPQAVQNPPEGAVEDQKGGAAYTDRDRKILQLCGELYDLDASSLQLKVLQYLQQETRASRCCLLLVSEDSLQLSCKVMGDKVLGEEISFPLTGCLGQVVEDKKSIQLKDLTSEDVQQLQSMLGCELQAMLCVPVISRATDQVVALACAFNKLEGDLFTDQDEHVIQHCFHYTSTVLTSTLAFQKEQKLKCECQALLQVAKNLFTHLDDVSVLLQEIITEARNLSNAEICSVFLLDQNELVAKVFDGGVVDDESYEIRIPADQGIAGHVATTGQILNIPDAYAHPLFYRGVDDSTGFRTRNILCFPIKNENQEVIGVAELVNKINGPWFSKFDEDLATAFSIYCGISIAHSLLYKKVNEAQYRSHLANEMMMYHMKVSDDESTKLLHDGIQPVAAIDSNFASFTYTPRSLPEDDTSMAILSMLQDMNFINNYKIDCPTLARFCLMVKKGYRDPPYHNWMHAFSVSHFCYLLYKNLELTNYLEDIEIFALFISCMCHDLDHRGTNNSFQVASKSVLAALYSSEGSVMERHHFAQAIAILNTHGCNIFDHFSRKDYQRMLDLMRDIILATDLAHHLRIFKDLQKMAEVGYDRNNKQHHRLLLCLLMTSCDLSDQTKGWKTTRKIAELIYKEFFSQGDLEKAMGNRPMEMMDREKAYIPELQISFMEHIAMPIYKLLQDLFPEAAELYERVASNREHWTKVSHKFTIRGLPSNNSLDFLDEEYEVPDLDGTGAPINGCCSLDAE

The first assay has as its target Rhesus PDE2A3 (Macaca mulatta, UniProt B3VTJ2). Nature of the assay: PDE2 fluorescence polarization (IMAP FP) inhibition assay, rhesus PDE2A3. The following applies: @ 1 μM; Lab A; read-out: Rhesus PDE2 % inhibition at a given concentration - Lab A. In kind it is biochemical, rhesus macaque. As to the method: A Labcyte Echo 555 (Labcyte, Sunnyvale, Calif.) is used to dispense 200 nL from each well of the titration plate to the 384 well assay plate. Ten microliters of a solution of enzyme (1/2000 final dilution from aliquots; sufficient to produce 20% substrate conversion) was added to the assay plate. Next 10 uL of a separate solution of the substrate FAM-labeled cAMP (50 nM final concentration product # R^7506 from Molecular Devices) and the activator cGMP (1 uM final concentration), prepared in the assay buffer (10 mM Tris HCl, pH 7.2, 10 mM MgCl2, 0.05% NaN3 0.01% Tween-20, and 1 mM DTT) was added to the assay plate and shaken to mix. The reaction is allowed to proceed at room temperature for 60 minutes. A binding solution is then made from the kit components, comprised of 80% Solution A, 20% Solution B and binding reagent at a volume of 1/600 the total binding solution. The enzymatic reaction is stopped by addition of 60 μL of the binding solution to each well of the assay plates and the plates are sealed and shaken for 30 seconds. The plate was incubated at room temperature for at least one hour prior to determining the fluorescence polarization (FP). The parallel and perpendicular fluorescence of each well of the plate was measured using a Tecan Genios Pro plate reader (Tecan, Switzerland) or Perkin Elmer EnVision™ plate reader (Waltham, Mass.). Fluorescence polarization (mP) was calculated from the parallel (S) and perpendicular (P) fluorescence of each sample well and the analogous values for the median control well, containing only substrate (So and Po), using the following equation: Polarization (mP)=1000*(S/So−P/Po)/(S/So+P/Po).
Dose-inhibition profiles for each compound were characterized by fitting the mP data to a four-parameter equation given below.
An apparent (KM) for FAM-labeled cAMP of ˜10 uM was used.
Take `Cc1cnn(-c2nc(C(=O)N[C@H](C)c3ccc(C(F)(F)F)cc3)cc(=O)[nH]2)c1` [Example 7, (R)-2-(4-methyl-1H-pyrazol-1-yl)-6-oxo-N-(1-(4-(trifluoromethyl)phenyl)ethyl)-1,6-dihydropyrimidine-4-carboxamide]: the inhibition at 1 µM turned out to be 25%.

Take `C[C@@H](NC(=O)c1cc(=O)[nH]c(-n2cccn2)n1)c1ccc(C(F)(F)F)cc1` [Example 9, (R)-6-oxo-2-(1H-pyrazol-1-yl)-N-(1-(4-(trifluoromethyl)phenyl)ethyl)-1,6-dihydropyrimidine-4-carboxamide]: the inhibition at 1 µM amounted to 26%.

Regarding `Cc1ccn(-c2nc(C(=O)N[C@H](C)c3ccc(C(F)(F)F)cc3)cc(=O)[nH]2)n1` [Example 8, (R)-2-(3-methyl-1H-pyrazol-1-yl)-6-oxo-N-(1-(4-(trifluoromethyl)phenyl)ethyl)-1,6-dihydropyrimidine-4-carboxamide], the inhibition at 1 µM was found to be 30%.

The same assay, now with this note: Lab A; read-out: Rhesus PDE2 Ki (nM) - Lab A.
Take `COC(C)(C)CCOc1nc(C(=O)NC(C)c2ccc(C(F)(F)F)cc2)cc(=O)[nH]1` (centres unmarked) [Example 186, 2-(3-methoxy-3-methylbutoxy)-6-oxo-N-{1-[4-(trifluoromethyl)phenyl]ethyl}-1,6-dihydro pyrimidine-4-carboxamide]: the Ki amounted to 352 nM.

For the molecule `CC(NC(=O)c1cc(=O)[nH]c(OC2CCNC2)n1)c1ccc(C(F)(F)F)cc1` (centres unmarked) [Example 185, 6-oxo-2-(pyrrolidin-3-yloxy)-N-{1-[4-(trifluoromethyl)phenyl]ethyl}-1,6-dihydropyrimidine-4-carboxamide], the Ki is above 100000 nM.

Take `CC(NC(=O)c1cc(=O)[nH]c(OC2CCCNC2)n1)c1ccc(C(F)(F)F)cc1` (centres unmarked) [Example 191, 6-oxo-2-(piperidin-3-yloxy)-N-{1-[4-(trifluoromethyl)phenyl]ethyl}-1,6-dihydropyrimidine-4-carboxamide]: the inhibition constant Ki was above 100000 nM.

In the case of `CC(NC(=O)c1cc(=O)[nH]c(OC2CCNCC2)n1)c1ccc(C(F)(F)F)cc1` (centres unmarked) [Example 187, 6-oxo-2-(piperidin-4-yloxy)-N-{1-[4-(trifluoromethyl)phenyl]ethyl}-1,6-dihydropyrimidine-4-carboxamide], the Ki was above 100000 nM.

`CC(NC(=O)c1cc(=O)[nH]c(OC2CCN(C)CC2)n1)c1ccc(C(F)(F)F)cc1` (centres unmarked) [Example 190, 2-[(1-methylpiperidin-4-yl)oxy]-6-oxo-N-{1-[4-(trifluoromethyl)phenyl]ethyl}-1,6-dihydro-pyrimidine-4-carboxamide]: the Ki was above 100000 nM.

For `COCCOc1nc(C(=O)NC(C)c2ccc(C(F)(F)F)cc2)cc(=O)[nH]1` (centres unmarked) [Example 21, 2-(2-Methoxyethoxy)-6-oxo-N-(1-(4-(trifluoromethyl)phenyl)ethyl)-1,6-dihydropyrimidine-4-carboxamide], the Ki was determined as 657 nM.

`CC(NC(=O)c1cc(=O)[nH]c(OCC2(C)COC2)n1)c1ccc(C(F)(F)F)cc1` (centres unmarked) [Example 188, 2-[(3-methyloxetan-3-yl)methoxy]-6-oxo-N-{1-[4-(trifluoromethyl)phenyl]ethyl}-1,6-dihydropyrimidine-4-carboxamide]: the Ki came to 12600 nM.

Consider `CC(NC(=O)c1cc(=O)[nH]c(OC2CCOC2)n1)c1ccc(C(F)(F)F)cc1` (centres unmarked) [Example 193, 6-oxo-2-(tetrahydrofuran-3-yloxy)-N-{1-[4-(trifluoromethyl)phenyl]ethyl}-1,6-dihydropyrimidine-4-carboxamide], for which the Ki worked out at 1060 nM.

Take `CNCCOc1nc(C(=O)NC(C)c2ccc(C(F)(F)F)cc2)cc(=O)[nH]1` (centres unmarked) [Example 189, 2-[2-(methylamino)ethoxy]-6-oxo-N-{1-[4-(trifluoromethyl)phenyl]ethyl}-1,6-dihydropyrimidine-4-carboxamide]: the Ki is 9310 nM.

As to `CC(NC(=O)c1cc(=O)[nH]c(OC2COC2)n1)c1ccc(C(F)(F)F)cc1` (centres unmarked) [Example 192, 2-(oxetan-3-yloxy)-6-oxo-N-{1-[4-(trifluoromethyl)phenyl]ethyl}-1,6-dihydropyrimidine-4-carboxamide], the Ki turned out to be 11500 nM.

Take `CC(NC(=O)c1cc(=O)[nH]c(OC2CCN(C)C2)n1)c1ccc(C(F)(F)F)cc1` (centres unmarked) [Example 181, 2-[(1-methylpyrrolidin-3-yl)oxy]-6-oxo-N-{1-[4-(trifluoromethyl)phenyl]ethyl}-1,6-dihydro pyrimidine-4-carboxamide]: the Ki was above 100000 nM.

In the case of `CC(NC(=O)c1cc(=O)[nH]c(OCCN(C)C)n1)c1ccc(C(F)(F)F)cc1` (centres unmarked) [Example 184, 2-[2-(dimethylamino)ethoxy]-6-oxo-N-{1-[4-(trifluoromethyl)phenyl]ethyl}-1,6-dihydro-pyrimidine-4-carboxamide], the Ki is 72000 nM.

With `CNCCCOc1nc(C(=O)NC(C)c2ccc(C(F)(F)F)cc2)cc(=O)[nH]1` (centres unmarked) [Example 180, 2-[3-(methylamino)propoxy]-6-oxo-N-{1-[4-(trifluoromethyl)phenyl]ethyl}-1,6-dihydro-pyrimidine-4-carboxamide], the Ki amounted to 86000 nM.

Regarding `CSc1nc(C(=O)N[C@@H](C)c2ccc(C(F)(F)F)cc2)cc(=O)[nH]1` [Example 16, (S)-2-(methylthio)-6-oxo-N-(1-(4-(trifluoromethyl)phenyl)ethyl)-1,6-dihydropyrimidine-4-carboxamide], the Ki was determined as 13300 nM.

Turning to `CC(NC(=O)c1cc(=O)[nH]c(OC2CCCN(C)C2)n1)c1ccc(C(F)(F)F)cc1` (centres unmarked) [Example 182, 2-[(1-methylpiperidin-3-yl)oxy]-6-oxo-N-{1-[4-(trifluoromethyl)phenyl]ethyl}-1,6-dihydro pyrimidine-4-carboxamide], the Ki was determined as 55000 nM.

In the case of `C[C@@H](NC(=O)c1cc(=O)[nH]c(Oc2ccccc2)n1)c1ccc(C(F)(F)F)cc1` [Example 19, (R)-6-oxo-2-phenoxy-N-(1-(4-(trifluoromethyl)phenyl)ethyl)-1,6-dihydropyrimidine-4-carboxamide], the Ki was 2930 nM.

Still in this assay, the particulars now being: Rhesus PDE2 Ki (nM) - Lab B, Lab B.
Molecule `CC(C)C(C)(NC(=O)c1cc(=O)[nH]c(N(C)C)n1)c1ccc(S(F)(F)(F)(F)F)cc1` (single isomer, unassigned) [Example 172, (R)- or (S)-2-dimethylamino)-N-{1,2-dimethyl-1-[4-(pentafluoro-λ^6-sulfanyl)phenyl]propyl}-6-oxo-1,6-dihydropyrimidine-4-carboxamide] returned a Ki of 154 nM.

As usually defined, the Ki is the dissociation constant of the complex between target and ligand, obtained from inhibition or displacement.
